The values below are quoted from earlier work in patent publication US7057165B2, “Probe for mass spectrometry” (Sense Proteomic Ltd., priority 2001, dated 2006).

The target in the series is T1, lectin from Arachis hypogea (Arachis hypogaea, UniProt P02872).
T1 construct: biotin (biotinylated lectin)
T1 sequence (P02872 24-259 limits assumed): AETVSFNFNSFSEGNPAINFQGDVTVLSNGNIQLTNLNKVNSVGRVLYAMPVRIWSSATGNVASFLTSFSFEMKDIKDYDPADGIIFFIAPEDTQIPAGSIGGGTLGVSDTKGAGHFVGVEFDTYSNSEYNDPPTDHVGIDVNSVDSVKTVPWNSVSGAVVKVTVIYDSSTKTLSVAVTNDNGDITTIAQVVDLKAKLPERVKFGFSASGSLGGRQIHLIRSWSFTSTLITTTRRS

Regarding `OC[C@H]1O[C@@H](O[C@H]2[C@H](O)[C@@H](O)C(O)O[C@@H]2CO)[C@H](O)[C@@H](O)[C@H]1O` (stereo partly shown) [lactose], the “binding constant for this lectin” value is recorded as “millimolar range”.
